Eight molecules from US11312727B1, “Macrocyclic flu endonuclease inhibitors” (Janssen BioPharma, Inc., priority 2018, dated 2022) can be followed below.

Series [1] concerns Influenza strain A549 A/WSN/33 (H1N1). Kind of series: microbe, parasite or virus in culture. The class given is cell-based. Conditions: Influenza A virus, A549, 20 h, A549 cells, influenza A/WSN/33 (H1N1), 20 hours incubation; read-out: A549_A(H1N1) EC50.
The nature of a further series: in vitro. Conditions: human, CC50, uninfected A549 cells, CellTiter-Glo.

Each structure is given as a SMILES string.

Regarding `O=C1c2c(O)c(=O)ccn2N2CN1CC/C=C\COc1cccc3c1[C@@H]2c1ccccc1SC3` (single isomer, unassigned) [Compound 37A, (1*R,13Z)-7-hydroxy-16-oxa-23-thia-2,3,10-triazahexacyclo[15.12.1.12,10.03,8.021,30.024,29]hentriaconta-4,7,13,17,19,21(30),24(29),25,27-nonaene-6,9-dione], in series [1], the EC50 turned out to be 12200 nM. The molecule also displayed a CC50 in “in vitro” of over 2000 nM.

As for `Cc1ccccc1C1c2ccc(F)c(F)c2OC/C=C\CN2CN1n1ccc(=O)c(O)c1C2=O` (single isomer, unassigned) [Compound 155B, (18*S,*Z)-3,4-difluoro-12-hydroxy-18-(o-tolyl)-6,9-dihydro-18H-10,17-methanobenzo[b]pyrido[1,2-f][1]oxa[5,6,9]triazacyclotridecine-11,13-dione], the EC50 in series [1] was over 50 nM. For the same molecule, the CC50 in “in vitro” is over 100 nM.

Take `CC[C@H]1/C=C/COc2c(F)cccc2[C@@H](c2ccccc2)N2CN1C(=O)c1c(O)c(=O)ccn12` (single isomer, unassigned) [Compound 85AA, (9*S,18*R,E)-9-ethyl-4-fluoro-12-hydroxy-18-phenyl-6,9-dihydro-18H-10,17-methanobenzo[b]pyrido[1,2-f][1]oxa[5,6,9]triazacyclotridecine-11,13-dione]: the EC50 in series [1] is 3 nM. Moreover, the CC50 in “in vitro” was over 200 nM.

For `CC[C@H]1/C=C/COc2c(F)cccc2[C@H](c2ccccc2)N2CN1C(=O)c1c(O)c(=O)ccn12` (single isomer, unassigned) [Compound 85BA, (9*S,18*S,E)-9-ethyl-4-fluoro-12-hydroxy-18-phenyl-6,9-dihydro-18H-10,17-methanobenzo[b]pyrido[1,2-f][1]oxa[5,6,9]triazacyclotridecine-11,13-dione], the EC50 in series [1] is over 500 nM. The CC50 in the series “in vitro” was over 1000 nM.

In the case of `O=C1c2c(O)c(=O)ccn2N2CN1C[C@@H]1C[C@H]1COc1c(ccc(F)c1F)[C@@H]2c1ccccc1` (single isomer, unassigned) [Compound 139AB, (1a*R,8*S,17a*R)-4,5-difluoro-14-hydroxy-8-phenyl-1a,2,17,17a-tetrahydro-1H,8H-9,16-methanobenzo[b]cyclopropa[k]pyrido[1,2-f][1]oxa[5,6,9]triazacyclotridecine-13,15-dione], in series [1], the EC50 stood at 4890 nM. In the series “in vitro”, this molecule registered a CC50 of 35900 nM.

As for `O=C1c2c(O)c(=O)ccn2N2CN1C/C=C\COc1ccccc1[C@@H]2c1ccc(F)c(F)c1` (single isomer, unassigned) [Compound 45B, (18*S,Z)-18-(3,4-difluorophenyl)-12-hydroxy-6,9-dihydro-18H-10,17-methanobenzo[b]pyrido[1,2-f][1]oxa[5,6,9]triazacyclotridecine-11,13-dione], the EC50 in series [1] amounted to 14 nM. The same molecule registered a CC50 in the series “in vitro” of over 200 nM.

Take `O=C1c2c(O)c(=O)ccn2N2CN1C/C=C\COc1c(ccc(F)c1F)[C@H]2c1ccccc1` (single isomer, unassigned) [Compound 74A, (18*R,Z)-3,4-difluoro-12-hydroxy-18-phenyl-6,9-dihydro-18H-10,17-methanobenzo[b]pyrido[1,2-f][1]oxa[5,6,9]triazacyclotridecine-11,13-dione]: in series [1], the EC50 is over 1000 nM. In the series “in vitro”, this molecule showed a CC50 of over 2000 nM.

On to `O=C1c2c(O)c(=O)ccn2N2CN1C[C@H]1C[C@@H]1COc1c(F)cccc1[C@H]2c1ccccc1` (single isomer, unassigned) [Compound 125AB, (1a*R,8*S,17a*R)-4-fluoro-14-hydroxy-8-phenyl-1a,2,17,17a-tetrahydro-1H,8H-9,16-methanobenzo[b]cyclopropa[k]pyrido[1,2-f][1]oxa[5,6,9]triazacyclotridecine-13,15-dione], for which the EC50 in series [1] came out at 24 nM. The molecule also registered a CC50 in “in vitro” of over 200 nM.

In general, EC50 refers to the concentration that produces a half-maximal response. In general, CC50 refers to the concentration at which the toxic effect on the cells reaches its halfway point.
